From patent US7790884B2, “Acylaminopiperidine compound” (Astellas Pharma Inc., priority 2006, dated 2010) come the findings set out here.

Structures can show the parent of a compound that is named as a salt.

For the assay, the target named is T1, human CCR4 (Homo sapiens, UniProt P51679).
T1 construct: expressed in transfected cells; membrane fraction used
T1 sequence (P51679 1-360): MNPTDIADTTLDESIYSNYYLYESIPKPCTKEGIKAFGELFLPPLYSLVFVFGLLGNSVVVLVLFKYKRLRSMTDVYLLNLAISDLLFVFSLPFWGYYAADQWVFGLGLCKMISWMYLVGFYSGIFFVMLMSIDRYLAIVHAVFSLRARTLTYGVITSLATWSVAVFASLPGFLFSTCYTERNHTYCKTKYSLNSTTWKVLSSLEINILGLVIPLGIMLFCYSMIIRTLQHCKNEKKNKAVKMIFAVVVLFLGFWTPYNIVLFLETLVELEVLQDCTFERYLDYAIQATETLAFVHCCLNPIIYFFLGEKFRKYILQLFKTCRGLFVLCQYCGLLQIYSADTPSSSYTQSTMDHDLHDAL
The assay is described as follows: [35S]GTPγS binding test via CCR4 (human MDC-stimulated, human CCR4 expressing cell line membrane fraction). To be noted: membrane fraction of human CCR4 expressing B300-16 cells, room temperature 1 hour 30 minutes, read-out: inhibitory activity value (IC50). In kind it is biochemical. How it is done:
Action for [^35S]GTPγS Binding Test Via CCR4 (1) Preparation of Human CCR4 Expressing Cell Line A vector (contains a neomycin-resistance gene) in which human CCR4 gene was inserted into downstream of the EF-1α promoter was prepared and transfected into a mouse pre B cell line B300-16 cells by electroporation. These cells were cultured using a G-418-supplemented medium, and a single cell line capable of producing human CCR4 constantly and stably was obtained by the limiting dilution method. (2) Preparation of Human CCR4 Expressing Cell Line Membrane Fraction The human CCR4 expressing cells were recovered, washed with PBS and then suspended in a lysis buffer (10 mM HEPES pH 7.5, 2 mM EDTA, proteinase inhibitor). After allowing the suspension to stand on ice for 15 minutes, the cells were disintegrated using a homogenizer and centrifuged (2000 rpm, 10 min, 4° C.). The supernatant was further subjected to ultracentrifugation (22 K, 30 min, 4° C.), and then the pellet was suspended in PBS and used in the subsequent test. (3) GTPγS Binding Test In a reaction mixture liquid containing 20 mM of HEPES pH 7.05, 100 mM of NaCl, 5 mM of MgCl2, 2 μM of GDP, human MDC, […] of [^35S]GTPγS, 1 mg of wheat germ agglutinin SPA beads and 1 μg of the human CCR4 expressing cell line membrane fraction, respective concentration of the test compound was allowed to undergo the reaction at room temperature for 1 hour and 30 minutes, and the radioactivity was measured.
For orientation: Binding of GTPγS marks nucleotide exchange on a G protein.
Broadly, the IC50 is the midpoint of a concentration-inhibition curve. Take `CCN(C(=O)[C@H]1CCCN1)C1CCN(c2nc(Nc3ccc(Cl)cc3F)c3cc(F)ccc3n2)CC1` [Example 33]: the IC50 is ≤ 100 nM.

As for `CN(C(=O)[C@@H]1CCCN1C)C1CCN(c2nc(Nc3ccc(Cl)cc3F)c3cc(Br)ccc3n2)CC1` [Example 7], the IC50 is ≤ 100 nM.

As to `COc1cc2nc(N3CCC(N(C)C(=O)[C@H]4CCCN4)CC3)nc(Nc3ccc(F)cn3)c2cc1F` [Example 76], the IC50 is ≤ 100 nM.

Take `CCN(C(=O)[C@@H]1CCCN1)C1CCN(c2nc(Nc3ccc(Cl)cc3F)c3cc(F)ccc3n2)CC1` [Example 48]: the IC50 was ≤ 100 nM.

On to `COc1cc2nc(N3CCC(N(C)C(=O)[C@H]4CCCN4)CC3)nc(Nc3ncc(Cl)cc3Cl)c2cc1F` [Example 75], for which the IC50 was ≤ 100 nM.

As for `CCN(C(=O)[C@@H]1CCCN1C)C1CCN(c2nc(Nc3ccc(Cl)cc3)c3cc(F)ccc3n2)CC1` [Example 51], the IC50 was ≤ 100 nM.

For `COc1cc2nc(N3CCC(N(C)C(=O)[C@@H]4CCCN4)CC3)nc(Nc3ccc(Cl)cc3F)c2cc1F` [Example 61], the IC50 was ≤ 100 nM.

On to `COc1cc2nc(N3CCC(N(C)C(=O)[C@H]4CCCN4)CC3)nc(NCc3ccc(Cl)cc3F)c2cc1F` [Example 79], for which the IC50 is ≤ 100 nM.

In the case of `CN(C(=O)[C@@H]1CCCN1)C1CCN(c2nc(Nc3ccc(Cl)cc3F)c3ccc(C#N)cc3n2)CC1` [Example 5], the half-maximal inhibitory concentration (IC50) was ≤ 100 nM.

With `COc1cc2c(Nc3ccc(Cl)cc3F)nc(N3CCC(N(C)C(=O)[C@H]4CCCN4C)CC3)nc2cc1F` [Example 37], the IC50 is ≤ 100 nM.

On to `CCn1ncc2c(Nc3ccc(Cl)cc3F)nc(N3CCC(N(C)C(=O)[C@H]4CCCN4)CC3)nc21` [Example 99], for which the IC50 is ≤ 100 nM.

`COc1cc2nc(N3CCC(N(C)C(=O)[C@H]4CCCN4)CC3)nc(Nc3cc(F)c(F)cc3F)c2cc1F` [Example 72]: the IC50 was ≤ 100 nM.

For the compound `COc1cc2nc(N3CCC(N(C(=O)[C@@H]4CCCN4C)C4CC4)CC3)nc(Nc3ccc(Cl)cc3F)c2cc1OC` [Example 20], the IC50 was ≤ 100 nM.

As for `CN(C(=O)[C@H]1CCCN1)C1CCN(c2nc(Nc3ccc(Cl)cc3F)c3cnn(C)c3n2)CC1` [Example 95], the IC50 is ≤ 100 nM.

Consider `CCN(C(=O)[C@@H]1CCCN1C)C1CCN(c2nc(Nc3ccc(Cl)cc3)c3cc(Br)ccc3n2)CC1` [Example 59], for which the IC50 was ≤ 100 nM.

In the case of `CCN(C(=O)[C@@H]1CCCN1)C1CCN(c2nc(Nc3ccc(Cl)cc3)c3cc(Br)ccc3n2)CC1` [Example 64], the IC50 was ≤ 100 nM.

In the case of `COc1cc2nc(N3CCC(N(C)C(=O)[C@@H]4CCCN4C)CC3)nc(Nc3ccc(Cl)cc3F)c2cc1F` [Example 6], the IC50 was ≤ 100 nM.

Regarding `COc1cc2nc(N3CCC(N(C)C(=O)[C@H]4CCCN4)CC3)nc(Nc3ccc(Cl)cc3F)c2cc1OC` [Example 10], the IC50 is ≤ 100 nM.

Turning to `CCN(C(=O)[C@H]1CCCN1)C1CCN(c2nc(Nc3ccc(Cl)cc3F)c3cc(F)c(OC)cc3n2)CC1` [Example 65], the half-maximal inhibitory concentration (IC50) is ≤ 100 nM.

As for `CCN(C(=O)[C@@H]1CCCN1)C1CCN(c2nc(Nc3ccc(Cl)cc3)c3cc(F)ccc3n2)CC1` [Example 53], the IC50 was ≤ 100 nM.

With `COc1cc2nc(N3CCC(N(C(=O)[C@H]4CCCN4C)C4CC4)CC3)nc(Nc3ccc(Cl)cc3F)c2cc1OC` [Example 21], the IC50 was ≤ 100 nM.

On to `CN(C(=O)[C@@H]1CCCN1C)C1CCN(c2nc(Nc3ccc(Cl)cc3)c3cc(Br)ccc3n2)CC1` [Example 46], for which the IC50 is ≤ 100 nM.

As to `CCN(C(=O)[C@H]1CCCN1C)C1CCN(c2nc(Nc3ccc(Cl)cc3)c3cc(Br)ccc3n2)CC1` [Example 60], the IC50 is ≤ 100 nM.

Take `CN(C(=O)[C@H]1CCCN1)C1CCN(c2nc(Nc3ccc(Cl)cc3F)c3cnn(CC(F)(F)F)c3n2)CC1` [Example 102]: the IC50 is ≤ 100 nM.

With `CCN(C(=O)[C@@H]1CCCN1)C1CCN(c2nc(Nc3ccc(Cl)cc3F)c3cc(F)c(OC)cc3n2)CC1` [Example 63], the IC50 is ≤ 100 nM.

Consider `COc1cc2nc(N3CCC(N(C(=O)[C@@H]4CCCN4)C4CCC4)CC3)nc(Nc3ccc(Cl)cc3F)c2cc1OC` [Example 16], for which the IC50 was ≤ 100 nM.

On to `CN(C(=O)[C@H]1CCCN1)C1CCN(c2nc(Nc3ccc(Cl)cc3)c3cc(Br)ccc3n2)CC1` [Example 44], for which the concentration for half-maximal inhibition (IC50) was ≤ 100 nM.

As for `COc1cc2nc(N3CCC(N(C)C(=O)[C@H]4CCCCN4)CC3)nc(Nc3ccc(Cl)cc3F)c2cc1OC` [Example 87], the concentration for half-maximal inhibition (IC50) is ≤ 100 nM.

On to `CCN(C(=O)[C@H]1CCCN1C)C1CCN(c2nc(Nc3ccc(Cl)cc3F)c3cc(F)ccc3n2)CC1` [Example 50], for which the IC50 is ≤ 100 nM.

Take `COc1cc2nc(N3CCC(N(C)C(=O)[C@H]4CCCN4CCO)CC3)nc(Nc3ccc(Cl)cc3F)c2cc1F` [Example 77]: the IC50 is ≤ 100 nM.

Turning to `CN(C(=O)[C@@H]1CCCN1C)C1CCN(c2nc(Nc3ccc(Cl)cc3)c3cc(F)ccc3n2)CC1` [Example 41], the IC50 is ≤ 100 nM.

Take `CCN(C(=O)[C@@H]1CCCN1)C1CCN(c2nc(Nc3ccc(Cl)cc3F)c3cc(OC)c(OC)cc3n2)CC1` [Example 9]: the IC50 was ≤ 100 nM.

With `CCN(C(=O)[C@@H]1CCCN1C)C1CCN(c2nc(Nc3ccc(Cl)cc3F)c3cc(F)ccc3n2)CC1` [Example 49], the half-maximal inhibitory concentration (IC50) is ≤ 100 nM.

Take `COc1cc2nc(N3CCC(N(C(=O)[C@H]4CCCCN4)C4CCC4)CC3)nc(Nc3ccc(Cl)cc3F)c2cc1OC` [Example 91]: the IC50 was ≤ 100 nM.

As for `CCN(C(=O)[C@H]1CCCN1)C1CCN(c2nc(Nc3ccc(Cl)cc3)c3cc(Br)ccc3n2)CC1` [Example 45], the IC50 was ≤ 100 nM.

As to `CCN(C(=O)[C@H]1CCCN1C)C1CCN(c2nc(Nc3ccc(Cl)cc3F)c3ccc(C#N)cc3n2)CC1` [Example 24], the half-maximal inhibitory concentration (IC50) is ≤ 100 nM.

Turning to `CN(C(=O)[C@@H]1CCCN1)C1CCN(c2nc(Nc3ccc(Cl)cc3)c3cc(F)ccc3n2)CC1` [Example 38], the IC50 is ≤ 100 nM.

Take `COc1cc2nc(N3CCC(N(C)C(=O)[C@H]4CCCN4C)CC3)nc(Nc3ccc(Cl)cc3F)c2cc1OC` [Example 19]: the IC50 was ≤ 100 nM.

As to `CCN(C(=O)[C@H]1CCCN1)C1CCN(c2nc(Nc3ccc(Cl)cc3F)c3cc(OC)c(OC)cc3n2)CC1` [Example 12], the IC50 is ≤ 100 nM.

`CN(C(=O)[C@@H]1CCCN1)C1CCN(c2nc(Nc3ccc(Cl)cc3F)c3cc(F)ccc3n2)CC1` [Example 29]: the IC50 is ≤ 100 nM.

Regarding `COc1cc2nc(N3CCC(N(C)C(=O)[C@@H]4CCCN4)CC3)nc(Nc3ccc(Cl)cc3F)c2cc1OC` [Example 2, N-(1-{4-[(4-chloro-2-fluorophenyl)amino]-6,7-dimethoxyquinazolin-2-yl}piperidin-4-yl)-N-methyl-L-prolinamide dihydrochloride], the IC50 is ≤ 100 nM.

On to `CN(C(=O)[C@H]1CCCN1)C1CCN(c2nc(Nc3ccc(Cl)cc3)c3cc(F)ccc3n2)CC1` [Example 39], for which the IC50 was ≤ 100 nM.

Regarding `CN(C(=O)[C@H]1CCCN1C)C1CCN(c2nc(Nc3ccc(Cl)cc3F)c3cnn(CC(F)(F)F)c3n2)CC1` [Example 104], the IC50 was ≤ 100 nM.

For `COc1cc2nc(N3CCC(N(C)C(=O)[C@H]4CCCN4CC(O)CO)CC3)nc(Nc3ccc(Cl)cc3F)c2cc1F` (stereo partly drawn) [Example 80], the IC50 was ≤ 100 nM.

On to `CN(C(=O)[C@H]1CCCN1)C1CCN(c2nc(Nc3ccc(Cl)cc3F)c3ccc(C#N)cc3n2)CC1` [Example 68], for which the IC50 is ≤ 100 nM.

Turning to `CN(C(=O)[C@H]1CCCN1C)C1CCN(c2nc(Nc3ccc(Cl)cc3F)c3cc(F)ccc3n2)CC1` [Example 32], the IC50 is ≤ 100 nM.

As for `CN(C(=O)[C@H]1CCCN1C)C1CCN(c2nc(Nc3ccc(Cl)cc3F)c3cc(Br)ccc3n2)CC1` [Example 22], the 50% inhibitory concentration (IC50) was ≤ 100 nM.

With `CCn1ncc2c(Nc3ccc(Cl)cc3F)nc(N3CCC(N(C)C(=O)[C@H]4CCCN4C)CC3)nc21` [Example 100], the concentration for half-maximal inhibition (IC50) was ≤ 100 nM.

Take `COc1cc2nc(N3CCC(N(C)C(=O)[C@H]4CCCN4)CC3)nc(Nc3ccc(Cl)cc3)c2cc1F` [Example 73]: the IC50 is ≤ 100 nM.

For the compound `CN(C(=O)[C@@H]1CCCN1)C1CCN(c2nc(Nc3ccc(Cl)cc3F)c3cc(Br)ccc3n2)CC1` [Example 54], the IC50 is ≤ 100 nM.

On to `CCN(C(=O)[C@H]1CCCN1C)C1CCN(c2nc(Nc3ccc(Cl)cc3F)c3cc(Br)ccc3n2)CC1` [Example 58], for which the IC50 was ≤ 100 nM.

On to `COc1cc2nc(N3CCC(N(C)C(=O)[C@H]4CCCN4)CC3)nc(Nc3ccc(Cl)cc3F)c2cc1F` [Example 62], for which the IC50 is ≤ 100 nM.

As to `CN(C(=O)[C@H]1CCCN1)C1CCN(c2nc(Nc3ccc(Cl)cc3F)c3cc(F)ccc3n2)CC1` [Example 30], the 50% inhibitory concentration (IC50) is ≤ 100 nM.

On to `CCN(C(=O)[C@H]1CCCN1)C1CCN(c2nc(Nc3ccc(Cl)cc3F)c3cc(Br)ccc3n2)CC1` [Example 56], for which the IC50 was ≤ 100 nM.
